Starred links: 1 amine or outer side, 2 acyl side, 3 side chain; linkers in the order of their positions; H or OH if unused. Positions of bridges follow the written chain, without caps; N, C: chain ends. Non-standard residues stand in square brackets, D forms with d. Residues, ends and D or L forms follow the SMILES beside them. *: point of attachment. X2 = CC1(C)C(/C=C/C=C/C=C2\N(CCCS(=O)(=O)O)c3ccc(S(=O)(=O)O)cc3C2(C)CCCCCC(=O)*)=[N+](CCCS(=O)(=O)[O-])c2ccc(S(=O)(=O)O)cc21; Phe(3-CH2NH2) = O=C([C@H](Cc1cccc(CN[*:3])c1)N[*:1])[*:2]; Me3N+(CH2)2O(CH2)2O(CH2)2CO = C[N+](C)(C)CCOCCOCCC(=O)*; Trp(5-F) = N[C@@H](Cc1c[nH]c2ccc(F)cc12)C(=O)O; X1 = O=C(CCC(=O)[*:1])NCc1ccc(CCN[*:2])cc1; mXylylene = c1cc(C[*:1])cc(C[*:2])c1; AEF = NCCOc1ccc(C[C@H](N)C(=O)O)cc1; Glutaryl = O=C(CCCC(=O)[*:2])[*:1]; NMeE = CN[C@@H](CCC(=O)O)C(=O)O; αMeP = C[C@@]1(C(=O)O)CCCN1; dDap = NC[C@@H](N)C(=O)O; Dap = NC[C@H](N)C(=O)O; Boc = CC(C)(C)OC(=O)*; Mpa = O=C(O)CCS; tBu = CC(C)(C)*
Columns and labels:
Assay type in all cases: binding
PCSK9 [1] = target: T1, PCSK9 (Homo sapiens, UniProt Q8NBP7); test: PCSK9 Alexa FRET Plus TR-FRET assay
T1 construct: purchased
Experimental: A solution containing 1 nM biotinylated PCSK9+2.5 nM Lance Streptavidin Europium (Strep-Eu) is made in 50 mM HEPES pH 7.4, 0.15 M NaCl, 5 mM CaCl2, 0.01% BSA, and 0.01% Surfactant P20. A separate solution containing 1920 nM of the AlexaFluor tagged cyclic peptide is made in the same buffer system. An Echo is used to transfer 0.075 ul of compound plus 0.675 ul of DMSO to each well of an assay plate followed by the addition of 15 ul of PCSK9+Stept-Eu and 15 ul of AF peptide. The final assay volume is 30.750 ul containing 0.5 nM PCSK9, 1.25 nM Strep-Eu, and 960 nM AF cyclic peptide. The reaction is incubated at room temperature for at least two hours prior to fluorescence measurements using an Envision Multilabel Reader. IC50 values are determined by fitting data to a sigmoidal dose-response curve using nonlinear regression. Ki is then calculated from the IC50 and the KD of AF cyclic peptide. Counts (B-counts) of the europium-labeled PCSK9 are followed to observe if compounds are adversely affecting PCSK9. A fall off of the B-counts is likely indicates a false positive of inhibition. Data from this procedure is reported as “P=‘numerical value’ (nanomolar)”

PCSK9 [2] = target: T1, PCSK9; test: PCSK9 Alexa FRET Standard TR-FRET assay
Experimental: A solution containing 1 nM biotinylated PCSK9+2.5 nM Lance Streptavidin Europium (Strep-Eu) is made in 50 mM HEPES pH 7.4, 0.15 M NaCl, 5 mM CaCl2, 0.01% BSA, and 0.01% Surfactant P20. […] An Echo is used to transfer 0.750 ul of compound to an assay plate followed by the addition of 15 ul of PCSK9+Stept-Eu and 15 ul of AF peptide. […] The reaction is incubated at room temperature for at least two hours prior to fluorescence measurements using an Envision Multilabel Reader. IC50 values are determined by fitting data to a sigmoidal dose-response curve using nonlinear regression. Ki is then calculated from the Ic50 and the KD of AF cyclic peptide. Counts (B-counts) of the europium-labeled PCSK9 are followed to observe if compounds are adversely PCSK9. A fall off of the B-counts is likely indicates a false positive of inhibition. Data from this procedure is reported as “A=‘numerical value’ (nanomolar)”

PCSK9 [3] = target: T1, PCSK9; test: KD of the AlexaFluor647 tagged cyclic peptide probes for PCSK9; conditions: AF tagged cyclic peptide probe, interaction with PCSK9
[4] = displacement of AlexaFluor647 tagged cyclic peptide Reagent B (960 nM) from biotinylated PCSK9 (0.5 nM), read-out: Plus / P (Alexa Fret plus standard TR Fret), Ki calculated from the IC50 and the KD of AF cyclic peptide
[5] = displacement of AlexaFluor647 tagged cyclic peptide Reagent A (20 nM) from biotinylated PCSK9 (0.5 nM), read-out: A (standard TR Fret), Ki calculated from the IC50 and the KD of AF cyclic peptide

T1 sequence (Q8NBP7 153-692): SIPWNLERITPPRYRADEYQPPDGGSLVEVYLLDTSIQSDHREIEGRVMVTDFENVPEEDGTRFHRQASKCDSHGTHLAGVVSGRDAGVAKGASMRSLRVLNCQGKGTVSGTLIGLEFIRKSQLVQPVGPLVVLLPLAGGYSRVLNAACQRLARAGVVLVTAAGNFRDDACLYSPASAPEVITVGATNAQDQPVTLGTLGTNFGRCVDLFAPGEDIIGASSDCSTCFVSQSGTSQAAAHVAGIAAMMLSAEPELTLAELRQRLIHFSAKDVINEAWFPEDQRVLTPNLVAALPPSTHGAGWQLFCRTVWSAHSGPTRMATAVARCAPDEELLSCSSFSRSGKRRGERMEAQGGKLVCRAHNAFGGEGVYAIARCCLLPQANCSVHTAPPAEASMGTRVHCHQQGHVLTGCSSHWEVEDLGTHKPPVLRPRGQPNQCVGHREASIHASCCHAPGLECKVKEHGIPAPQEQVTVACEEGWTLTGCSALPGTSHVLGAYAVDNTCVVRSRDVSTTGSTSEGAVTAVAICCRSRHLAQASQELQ

Compound	Ki (PCSK9 [1]) [nM]	Ki (PCSK9 [2]) [nM]	Ki (PCSK9 [2]; [5]) [nM]	other results
COc1ccc(C[C@@H]2NC(=O)[C@H]([C@@H](C)O)NC(=O)[C@@H]3[C@@H]4CCN3C(=O)[C@H](Cc3c[nH]c5ccc(F)cc35)NC(=O)[C@H](Cc3cccc(c3)CNC(=O)CO4)NC(=O)[C@@H](C)NC(=O)[C@H](CN)NC(=O)CCC(=O)NCc3ccc(cc3)CCNC(=O)[C@]3(C)CCCN3C2=O)cc1 [Ex-B01]	1.24	2.04		
COc1ccc(C[C@@H]2NC(=O)[C@H]([C@@H](C)O)NC(=O)[C@@H]3[C@@H]4CCN3C(=O)[C@H](Cc3c[nH]c5ccc(F)cc35)NC(=O)[C@H](Cc3cccc(c3)CNC(=O)CO4)NC(=O)[C@@H](C)NC(=O)[C@H](CNC(=O)CCOCCOCC[N+](C)(C)C)NC(=O)CCC(=O)NCc3ccc(cc3)CCNC(=O)[C@]3(C)CCCN3C2=O)cc1 [Ex-B02]	2.19	4.02		
COc1ccc(C[C@@H]2NC(=O)[C@H]([C@@H](C)O)NC(=O)[C@@H]3[C@@H]4CCN3C(=O)[C@H](Cc3c[nH]c5ccc(F)cc35)NC(=O)[C@H](Cc3cccc(c3)CNC(=O)CO4)NC(=O)C(CN)NC(=O)[C@H](C)NC(=O)CCC(=O)NCc3ccc(cc3)CCNC(=O)[C@]3(C)CCCN3C2=O)cc1 (stereo partly shown) [Ex-B03]	0.008	< 1.26		
COc1ccc(C[C@@H]2NC(=O)[C@H]([C@@H](C)O)NC(=O)C[C@@H]3[C@@H]4CCN3C(=O)[C@H](Cc3c[nH]c5ccc(F)cc35)NC(=O)[C@H](Cc3cccc(c3)CNC(=O)CO4)NC(=O)[C@@H](CNC(=O)CCOCCOCC[N+](C)(C)C)NC(=O)[C@H](C)NC(=O)CCC(=O)NCc3ccc(cc3)CCNC(=O)[C@]3(C)CCCN3C2=O)cc1 [Ex-B04]			< 1.26	Ki (PCSK9 [1]; [4]): 0.02 nM
COc1ccc(C[C@@H]2NC(=O)[C@H]([C@@H](C)O)NC(=O)[C@@H]3CCC(=O)NCc4cccc(c4)C[C@H](NC(=O)[C@@H](C)NC(=O)[C@H](C)NC(=O)[C@@H](NC(C)=O)CC(=O)NCCOc4ccc(cc4)C[C@@H](C(N)=O)NC(=O)[C@]4(C)CCCN4C2=O)C(=O)N[C@@H](Cc2c[nH]c4ccc(F)cc24)C(=O)N3C)cc1 [Ex-C01] (Ac-DA[dA][Phe(3-CH2NH2)][Trp(5-F)][NMeE]TY(Me)[αMeP][AEF]-NH2; lactam 1-10, 4-6)			27.8	
COc1ccc(C[C@@H]2NC(=O)[C@H]([C@@H](C)O)NC(=O)[C@@H]3CCC(=O)NCc4cccc(c4)C[C@H](NC(=O)[C@@H](C)NC(=O)CCCC(=O)NCCOc4ccc(cc4)C[C@@H](C(N)=O)NC(=O)[C@]4(C)CCCN4C2=O)C(=O)N[C@@H](Cc2c[nH]c4ccc(F)cc24)C(=O)N3C)cc1 [Ex-C02] ([dA][Phe(3-CH2NH2)][Trp(5-F)][NMeE]TY(Me)[αMeP][AEF]-NH2; lactam 2-4; linker N-8 via Glutaryl)			151	
COc1ccc(C[C@@H]2NC(=O)[C@H]([C@@H](C)O)NC(=O)[C@@H]3CCC(=O)NCc4cccc(c4)C[C@H](NC(=O)[C@@H](C)NC(=O)[C@H](CNC(=O)CCOCCOCC[N+](C)(C)C)NC(=O)CCC(=O)NCc4ccc(cc4)CCNC(=O)[C@]4(C)CCCN4C2=O)C(=O)N[C@@H](Cc2c[nH]c4ccc(F)cc24)C(=O)N3C)cc1 [Ex-C03] ([Dap](Me3N+(CH2)2O(CH2)2O(CH2)2CO)[dA][Phe(3-CH2NH2)][Trp(5-F)][NMeE]TY(Me)[αMeP]; lactam 3-5; linker N-C via X1)			18.4	
COc1ccc(C[C@@H]2NC(=O)[C@H]([C@@H](C)O)NC(=O)[C@@H]3CCC(=O)NCc4cccc(c4)C[C@H](NC(=O)[C@@H](C)NC(=O)[C@H](CN)NC(=O)CCC(=O)NCc4ccc(cc4)CCNC(=O)[C@]4(C)CCCN4C2=O)C(=O)N[C@@H](Cc2c[nH]c4ccc(F)cc24)C(=O)N3C)cc1 [Ex-C04] ([Dap][dA][Phe(3-CH2NH2)][Trp(5-F)][NMeE]TY(Me)[αMeP]; lactam 3-5; linker N-C via X1)			4.24	
COc1ccc(C[C@@H]2NC(=O)[C@H]([C@@H](C)OC(C)(C)C)NC(=O)[C@@H]3CCC(=O)NCc4cccc(c4)C[C@H](NC(=O)[C@@H](CNC(=O)OC(C)(C)C)NC(=O)[C@H](C)NC(=O)CCC(=O)NCc4ccc(cc4)CCNC(=O)[C@]4(C)CCCN4C2=O)C(=O)N[C@@H](Cc2c[nH]c4ccc(F)cc24)C(=O)N3C)cc1 [Ex-C05] (A[dDap](Boc)[Phe(3-CH2NH2)][Trp(5-F)][NMeE]T(tBu)Y(Me)[αMeP]; lactam 3-5; linker N-C via X1)			< 1.26	Ki (PCSK9 [1]; [4]): 4.37 nM
COc1ccc(C[C@@H]2NC(=O)[C@H]([C@@H](C)O)NC(=O)[C@@H]3CCC(=O)NCc4cccc(c4)C[C@H](NC(=O)[C@@H](CN)NC(=O)[C@H](C)NC(=O)CCC(=O)NCc4ccc(cc4)CCNC(=O)[C@]4(C)CCCN4C2=O)C(=O)N[C@@H](Cc2c[nH]c4ccc(F)cc24)C(=O)N3C)cc1 [Ex-C06] (A[dDap][Phe(3-CH2NH2)][Trp(5-F)][NMeE]TY(Me)[αMeP]; lactam 3-5; linker N-C via X1)			15.9	
COc1ccc(C[C@@H]2NC(=O)[C@H]([C@@H](C)O)NC(=O)[C@@H]3CCC(=O)NCc4cccc(c4)C[C@H](NC(=O)[C@@H](CNC(=O)CCOCCOCC[N+](C)(C)C)NC(=O)[C@H](C)NC(=O)CCC(=O)NCc4ccc(cc4)CCNC(=O)[C@]4(C)CCCN4C2=O)C(=O)N[C@@H](Cc2c[nH]c4ccc(F)cc24)C(=O)N3C)cc1 [Ex-C07] (A[dDap](Me3N+(CH2)2O(CH2)2O(CH2)2CO)[Phe(3-CH2NH2)][Trp(5-F)][NMeE]TY(Me)[αMeP]; lactam 3-5; linker N-C via X1)			7.17	
COc1ccc(C[C@@H]2NC(=O)[C@H]([C@H](C)O)NC(=O)[C@@H]3[C@@H]4CCN3C(=O)[C@H](Cc3c[nH]c5ccc(F)cc35)NC(=O)[C@H](Cc3cccc(c3)Cn3cc(nn3)CO4)NC(=O)[C@@H](C)NC(=O)[C@H](C)NC(=O)[C@@H](NC(C)=O)CC(=O)NCc3ccc(cc3)C[C@@H](C(N)=O)NC(=O)[C@]3(C)CCCN3C2=O)cc1 [Ex-OT-03]			< 1.26	Ki (PCSK9 [1]; [4]): 0.32 nM
COc1ccc(C[C@@H]2NC(=O)[C@H]([C@H](C)O)NC(=O)[C@@H]3[C@@H]4CCN3C(=O)[C@H](Cc3c[nH]c5ccc(F)cc35)NC(=O)[C@H](Cc3cccc(c3)Cn3cc(nn3)CO4)NC(=O)[C@@H](C)NC(=O)[C@H](CCCC[N+](C)(C)C)NC(=O)CCC(=O)NCc3ccc(cc3)C[C@@H](C(N)=O)NC(=O)[C@]3(C)CCCN3C2=O)cc1 [Ex-OT-04]			< 1.26	Ki (PCSK9 [1]; [4]): 0.32 nM
COc1ccc(C[C@@H]2NC(=O)[C@H]([C@H](C)O)NC(=O)[C@@H]3[C@@H]4CCN3C(=O)[C@H](Cc3c[nH]c5ccc(F)cc35)NC(=O)[C@H](Cc3cccc(c3)Cn3cc(nn3)CO4)NC(=O)[C@@H](C)NC(=O)[C@H](CNC(=O)CCOCCOCC[N+](C)(C)C)NC(=O)CCC(=O)NCc3ccc(cc3)C[C@@H](C(N)=O)NC(=O)[C@]3(C)CCCN3C2=O)cc1 [Ex-OT-05]	0.19	< 1.26		
COc1ccc(C[C@@H]2NC(=O)[C@H]([C@@H](C)O)NC(=O)[C@@H]3[C@@H]4CCN3C(=O)[C@H](Cc3c[nH]c5ccc(F)cc35)NC(=O)[C@H](Cc3cccc(c3)Cn3cc(nn3)CO4)NC(=O)[C@@H](C)NC(=O)[C@H](CNC(=O)CCOCCOCC[N+](C)(C)C)NC(=O)CCC(=O)NCc3ccc(cc3)CCNC(=O)[C@]3(C)CCCN3C2=O)cc1 [Ex-OT-06]	0.29	< 1.26		
CC1(C)C(/C=C/C=C/C=C2\N(CCCS(=O)(=O)O)c3ccc(S(=O)(=O)O)cc3C2(C)CCCCCC(=O)NCCCC[C@@H]2NC(=O)CCSCc3cccc(c3)CSC[C@@H](C(N)=O)NC(=O)[C@]3(C)CCCN3C(=O)[C@H](Cc3ccc(O)cc3)NC(=O)[C@H](Cc3c[nH]cn3)NC(=O)[C@H](CC(=O)O)NC(=O)[C@H](Cc3c[nH]c4ccc(F)cc34)NC(=O)[C@H](Cc3c[nH]c4ccc(F)cc34)NC(=O)CNC2=O)=[N+](CCCS(=O)(=O)[O-])c2ccc(S(=O)(=O)O)cc21 (stereo partly shown) [Reagent A] ([Mpa]K(X2)G[Trp(5-F)][Trp(5-F)]DHY[αMeP]C-NH2; linker 1-10 via mXylylene)				Kd (PCSK9 [3]): 83 nM

Source: US11306125B2, “PCSK9 antagonists bicyclo-compounds” (Merck Sharp & Dohme Corp., priority 2018, dated 2022)
